Results from patent US20160089391A1, “Molecular Targets for Cardiovascular Disease” (Temple University-of the Commonwealth System of Higher …, priority 2014, published 2016).

What was measured:
[1] = test system: NO production in HAECs; assay: NO production in HAECs by DAF-FM staining; type: cell-based, human; settings: for NO generation: HAECs, DL-Hcy 500 μmol/L and/or D-Glu 25 mmol/L for 48 hrs
Method: (§1) (FIG. 6A). Images of NO. Nitric oxide (NO) production in HAECs was measured by staining intact HAECs with NO marker DAF-FM. N^G-nitro-L-arginine methyl ester (L-NAME, 100 μmol/L, Sigma #N5751) was added in the last hour as a negative control. (FIG. 6B). Quantification of NO. (FIG. 6C). eNOS activity. Human aortic endothelial cells (HAECs) were cultured in EC medium which contains 5 mmol/L D-Glucose (D-Glu), and treated with DL-homocysteine (DL-Hcy, 500 μmol/L) and/or (D-Glu, 25 mmol) without or with MDL28170 (MDL) for 48 hrs, CTsiRNA or μ-calpsiRNA for 72 hrs. L-NAME (100 μmol/L) was added in the last hour. NO was measured by staining intact HAECs with NO marker (DAF-FM, 10 μmol/L, Sigma #D2321, 30 mins.). Endothelial nitric oxide synthase (eNOS) activity was assessed by measuring of ^3H-L-arginine conversion to ^3H-citrulline in intact HAECs. n=3, *p<0.05 vs control; †p<0.05 vs DL-Hcy-treated HAECs; ‡p<0.05 vs D-Glu-treated HAECs; #p<0.05 vs DL-Hcy/D-Glu-treated HAECs. DAF-FM, 4-Amino-5-methylamino-2′,7′-difluorescein; CTsiRNA, control siRNA; HG, hyperglycemia; HHcy, hyperhomocysteinemia; μ-calpsiRNA, μ-calpain siRNA.
(§2) HAECs treated with or without DL-Hcy and/or D-Glu for 48 hrs were stained with 4-Amino-5-Methylamino-2′,7′-Difluorofluorescein (DAF-FM). To explore the role of calpain, especially μ-calpain, the DL-Hcy/D-Glu-treated HAECs were also treated with MDL28170 (MDL, 20 μmol/L) and μ-calpain siRNA, respectively. HAECs treated with L-NAME (100 μmol/L) for 1 hr before DAF-FM staining were used as negative controls. eNOS activity in HAECs was determined by measuring the conversion of ^3H-Arg to ^3H-citrulline in intact cells as previous described (Jiang et al., 2005, Arterioscl Throm Vas 25:2515-2521).

[2] = biological target: T1, eNOS (Homo sapiens, UniProt P29474); assay: eNOS activity in intact HAECs (3H-Arg to 3H-citrulline conversion); type: cell-based
T1 construct: endogenous in cells; host or cells: HAECs (human aortic endothelial cells)
T1 sequence (P29474 2-1203 limits assumed): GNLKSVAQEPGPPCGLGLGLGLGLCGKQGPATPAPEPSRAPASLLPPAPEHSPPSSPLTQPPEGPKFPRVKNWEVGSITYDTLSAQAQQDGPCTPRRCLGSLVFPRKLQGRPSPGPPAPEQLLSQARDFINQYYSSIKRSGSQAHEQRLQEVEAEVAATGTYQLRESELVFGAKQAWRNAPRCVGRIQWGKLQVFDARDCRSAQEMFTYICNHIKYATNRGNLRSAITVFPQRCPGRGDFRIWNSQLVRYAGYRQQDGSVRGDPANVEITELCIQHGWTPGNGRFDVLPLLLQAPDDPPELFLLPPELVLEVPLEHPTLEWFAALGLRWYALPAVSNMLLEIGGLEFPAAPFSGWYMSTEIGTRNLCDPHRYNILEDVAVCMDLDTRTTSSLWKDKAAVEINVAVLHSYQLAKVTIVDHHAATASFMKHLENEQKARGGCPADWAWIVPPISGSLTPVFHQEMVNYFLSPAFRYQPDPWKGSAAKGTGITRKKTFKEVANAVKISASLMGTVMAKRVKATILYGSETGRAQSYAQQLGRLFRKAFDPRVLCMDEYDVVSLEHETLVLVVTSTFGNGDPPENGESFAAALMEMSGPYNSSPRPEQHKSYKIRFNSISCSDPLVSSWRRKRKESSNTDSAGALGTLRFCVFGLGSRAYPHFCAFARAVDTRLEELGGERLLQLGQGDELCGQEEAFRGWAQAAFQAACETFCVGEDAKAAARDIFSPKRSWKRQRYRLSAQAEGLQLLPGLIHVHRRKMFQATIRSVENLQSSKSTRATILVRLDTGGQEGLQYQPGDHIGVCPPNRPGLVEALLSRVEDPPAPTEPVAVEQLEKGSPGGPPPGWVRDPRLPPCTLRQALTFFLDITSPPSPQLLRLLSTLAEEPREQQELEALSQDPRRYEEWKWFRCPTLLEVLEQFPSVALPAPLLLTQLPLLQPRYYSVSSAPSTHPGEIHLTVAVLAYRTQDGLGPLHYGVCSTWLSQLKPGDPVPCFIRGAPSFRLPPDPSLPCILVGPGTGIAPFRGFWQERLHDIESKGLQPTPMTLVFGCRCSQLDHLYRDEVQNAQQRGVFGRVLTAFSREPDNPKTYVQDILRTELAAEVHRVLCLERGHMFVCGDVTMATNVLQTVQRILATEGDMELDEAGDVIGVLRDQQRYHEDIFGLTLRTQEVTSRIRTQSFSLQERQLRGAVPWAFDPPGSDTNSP
Method: as §1, §2

[3] = HAECs, DL-Hcy 500 μmol/L and/or D-Glu 25 mmol/L for 48 hrs, relative to control

eNOS activity [2, 3] | Compound | NO generation [1] | NO production ([1]; HHcy/HG (DL-Hcy/D-Glu)-treated HAECs, improved from 26%, MDL 20 μmol/L 48 hrs, siRNA 72 hrs) | eNOS activity ([2]; HHcy/HG (DL-Hcy/D-Glu)-treated HAECs, improved from 35% (MDL) or printed 26% (siRNA), MDL 20 μmol/L 48 hrs, siRNA 72 hrs)
69% | NC(CCS)C(=O)O (racemic) [DL-Hcy, DL-homocysteine] | 78 % of the control | – | –
52% | O=C[C@H](O)[C@@H](O)[C@H](O)[C@H](O)CO [D-Glu, D-glucose] | 36 % of the control | – | –
– | MDL28170 | – | 86% | 74%
